What was measured:
[1] = test system: bacteria of the Burkholderia cepacia complex; experiment: Reduction in viability of Bcc bacteria (preservative activity); assay type: cell-based; conditions: in 4 hours
[2] = test system: bacteria of the Burkholderia cepacia complex; experiment: Sensitivity test (MIC/MBC by agar dilution and broth dilution) on a Burkholderia strain panel; assay type: cell-based
Experimental: The minimum inhibitory concentration (MIC) and the minimum bactericidal concentration (MBC) of compounds of formula (I) of the invention, in particular EZ, were determined by standardized agar dilution and broth dilution tests, described by Rushton et al. Key role for efflux in the preservative susceptibility and adaptive resistance of Burkholderia cepacia complex bacteria. Antimicrobial Agents and Chemotherapy, 2013. 57(7): p. 2972-2980 using TSA/TSB. The culture was carried out at 30° C. in order to be representative of the production and storage of industrial products. Preserving stock solutions (50% w/v) were prepared in DMSO (Sigma-Aldrich, United Kingdom) and volumes were added to the medium so as to achieve the test concentration. The final concentration of DMSO in the presence of the bacterium was verified to be non-toxic (not exceeding 4% v/v) and was included as control condition in the tests in order to eliminate the effect on growth. […] The efficacy and toxicity of the neutralizing solution were evaluated before the experiment, as described in the scientific publication by Lear, J. C., et al. (J. C., et al., Chloroxylenol- and triclosan-tolerant bacteria from industrial sources—Susceptibility to antibiotics and other biocides. International Biodeterioration and Biodegradation, 2006. 57(1): p. 51-56). […]

[3] = test system: bacteria of the Bcc complex; conditions: levels used in industry; cited from earlier work

## CCOc1cc(CCC(C)=O)ccc1O [EZ, 4-(3-ethoxy-4-hydroxyphenyl)butan-2-one]
[1]
  reduction in viability: 6 log
[2]
  inhibitory activity with respect to bacteria of the Burkholderia cepacia complex: very significant inhibitory activity
[2]; strains representing species commonly encountered as contaminants, culture at 30° C.
  efficacy against a diversified panel of 57 Burkholderia strains: excellent efficacy

## O=C([O-])c1ccccc1.[Na+] [sodium benzoate]
[3]
  efficacy with respect to contamination by bacteria of the Bcc complex: ineffective
